Assay results taken from article PMC6273342, “Cytotoxic Alkaloids from the Stem of Xylopia laevigata” (Molecules, 2016).
Where two headings read alike, the source gives them in different places.

Key:
[1] = test system: B16-F10 (mouse melanoma); assay: Alamar Blue cytotoxicity assay, B16-F10; format: cell-based; conditions: 72 h incubation
Text: (§1) Camargo, São Paulo, Brazil.

[2] = test system: HepG2 (human hepatocellular carcinoma); assay: Alamar Blue cytotoxicity assay, HepG2; format: cell-based; conditions: 72 h incubation
Text: as §1

[3] = test system: HL-60 (human promyelocytic leukemia); assay: Alamar Blue cytotoxicity assay, HL-60; format: cell-based; conditions: for IC50: Homo sapiens, HL-60, Alamar Blue, 72 h incubation, read-out: IC50 HL60; for selectivity index (SI): SI = IC50[PBMC]/IC50[HL-60]
Protocol: (§3) B16-F10, HepG2, K562 and HL-60 tumor cell lines were kindly donated by Hospital A.C. […] Cells were maintained in RPMI 1640 medium (Gibco-BRL, Gaithersburg, MD, USA) with 10% fetal bovine serum (Cultilab, Campinas, Brazil), 2 mM L-glutamine (Vetec Química Fina, Duque de Caxias, Brazil) and 50 μg/mL gentamycin (Novafarma, Anápolis, Brazil). Adherent cells were collected by treatment with 0.25% trypsin-EDTA solution (Gibco-BRL). All cell lines were cultured in flasks at 37 °C in 5% CO2 and sub-cultured every 3–4 days to maintain exponential growth. All cell lines were tested for mycoplasma using a Mycoplasma Stain Kit (Sigma-Aldrich, St. Louis, MO, USA) to confirm that the cells were free from contamination.
(§4) Cell viability was quantified using the Alamar Blue assay, according to Ahmed et al. [23]. Cells were placed in 96-well plates for all experiments (0.7 × 10^5 cells/mL for adherent cells or 0.3 × 10^6 cells/mL for suspended cells in 100 μL of medium). After 24 h, the alkaloids (in a range of eight different concentrations varying from 0.19 to 25 μg/mL) were dissolved in dimethyl sulfoxide (DMSO, Sigma-Aldrich Co.), and the solution was added to each well and incubated for 72 h. […] Negative controls received the vehicle that was used for diluting the alkaloids (0.5% DMSO). Four (for cell lines) or 24 h (for PBMCs) before the end of incubation, 20 μL of a stock solution (0.312 mg/mL) of the Alamar Blue (resazurin, Sigma-Aldrich Co.) was added to each well. The absorbance at 570 nm and 600 nm was measured using a SpectraMax 190 Microplate Reader (Molecular Devices, Sunnyvale, CA, USA), and the drug effect was quantified as the percentage of control absorbance.

[4] = test system: K562 (human chronic myelocytic leukemia); assay: Alamar Blue cytotoxicity assay, K562; format: cell-based; conditions: 72 h incubation
Text: as §1

[5] = test system: peripheral blood mononuclear cells (PBMCs); assay: Alamar Blue cytotoxicity assay, non-tumor PBMCs; format: cell-based; conditions: Homo sapiens, PBMC, 72 h incubation, ConA-stimulated PBMCs
Protocol: Heparinized blood was collected from 20- to 35-year-old, healthy non-smokers who had not taken any drugs for at least 15 days prior to sampling, and the peripheral blood mononuclear cells (PBMCs) were isolated using a Ficoll density gradient in a Ficoll-Paque Plus (GE Healthcare Bio-Sciences AB, Uppsala, Sweden). PBMCs were washed and resuspended at a concentration of 0.3 × 10^6 cells/mL in RPMI 1640 medium with 20% fetal bovine serum, 2 mM L-glutamine and 50 μg/mL gentamycin at 37 °C with 5% CO2. Concanavalin A (ConA, Sigma-Aldrich Co.) was used as a mitogen to trigger cell division in T-lymphocytes. ConA (10 μg/mL) was added at the beginning of culture, and the cells were treated with the test compounds after 24 h. Cell viability was examined using a trypan blue exclusion assay for all experiments. Over 90% of the cells were viable at the beginning of the culture. The Research Ethics Committee of the Oswaldo Cruz Foundation (Salvador, Bahia, Brazil) approved the experimental protocol (#031019/2013). All participants signed a written informed consent to participate in the study.

[6] = test system: HepG2 cells; assay: Trypan Blue dye exclusion, HepG2; format: cell-based, human; conditions: HepG2, 24 h, lanuginosine 10 and 20 μg/mL, (+)-xylopine 5 and 10 μg/mL
Protocol: (§2) The following set of experiments was performed to investigate the mechanisms involved in the cytotoxic action of the alkaloids lanuginosine and (+)-xylopine. In all experiments, 2 mL of a HepG2 cell solution (0.7 × 10^5 cells/mL) was placed in 24-well plates and incubated overnight to allow the cells to adhere to the plate surface. The cells were then treated for 24 h with the alkaloids lanuginosine (10 and 20 μg/mL) and (+)-xylopine (5 and 10 μg/mL). The negative control was treated with the vehicle (0.2% DMSO) used for diluting the alkaloids. […] Cell viability was assessed for all experiments using a Trypan Blue exclusion assay.

[7] = test system: HepG2 cells; assay: Acridine Orange/ethidium bromide staining, fluorescence microscopy, HepG2; format: cell-based, human; conditions: HepG2, 24 h; lanuginosine 10 and 20 μg/mL, (+)-xylopine 5 and 10 μg/mL; p < 0.05
Protocol: as §2
Cells were pelleted and resuspended in saline (25 μL). Then, 1 μL of aqueous solution of AO/EB (100 μg/mL, Sigma-Aldrich Co.) was added, and the cell viability changes were observed under a fluorescence microscope (Olympus BX41). In this assay, AO permeates all cells and makes the nuclei appear green. EB is only taken up by cells when the cytoplasmic membrane integrity is lost and stains the nucleus red. EB also dominates over AO. Thus, live cells have a normal green nucleus; early apoptotic cells have a bright green nucleus with condensed or fragmented chromatin; late apoptotic cells display condensed and fragmented orange chromatin; cells that have died from direct necrosis have a structurally normal orange nucleus. Three hundred cells were counted per sample and classified as viable, apoptotic or necrotic.

[8] = test system: HepG2 cells; assay: Morphological analysis with May-Grünwald-Giemsa staining, HepG2; format: cell-based, human; conditions: HepG2, 24 h; lanuginosine 10 and 20 μg/mL, (+)-xylopine 5 and 10 μg/mL
Protocol: as §2
To evaluate alterations in morphology, cells were cultured under a coverslip, fixed with methanol for 30 s and stained with May-Grünwald-Giemsa stain. Morphological changes were examined by light microscopy (Olympus BX41, Tokyo, Japan) using Image-Pro software (Media Cybernetics, Rockville, MD, USA).

[9] = test system: HepG2 cells; assay: Annexin assay (phosphatidylserine externalization, flow cytometry), HepG2; format: cell-based, human; conditions: HepG2, 24 h; p < 0.05; without affecting the cell membrane integrity
Protocol: as §2
Phosphatidylserine externalization was analyzed by flow cytometry. A FITC annexin V apoptosis detection kit (BD Biosciences, San Jose, CA, USA) was used to determine cell viability (viable, early apoptotic, late apoptotic and necrotic cells). Cells were washed twice with saline and then resuspended in 100 μL of binding buffer with 5 μL of propidium iodide and 5 μL of FITC annexin V. The cells were gently mixed on a vortexer and incubated for 15 min at room temperature (20–25 °C) in the dark. Afterwards, 400 μL of binding buffer was added to each tube and the cells were analyzed by flow cytometry on a BD LSRFortessa cytometer using BD FACSDiva Software (BD Biosciences) and Flowjo Software 10 (Flowjo LCC, Ashland, OR, USA). Ten thousand events were evaluated per experiment and cellular debris was omitted from the analysis.

[10] = test system: HepG2 cells; assay: Internucleosomal DNA fragmentation and cell cycle distribution (flow cytometry, propidium iodide), HepG2; format: cell-based, human; conditions: HepG2, 24 h; for Cell Cycle Phases (%) G2/M: NC 19.93 ± 6.12; for Cell Cycle Phases (%) G1: NC 51.50 ± 4.02
Protocol: as §2
Cells were harvested in a lysis solution containing 0.1% triton X-100 (Sigma Chemical Co., St. Louis, MO, USA), 2 µg/mL propidium iodide (Sigma Chemical Co.), 0.1% sodium citrate and 100 µg/mL RNAse (Sigma Chemical Co.). Cell fluorescence was determined by flow cytometry on a BD LSRFortessa cytometer using BD FACSDiva Software (BD Biosciences) and Flowjo Software 10. Ten thousand events were evaluated per experiment and cellular debris was omitted from the analysis.

[11] = test system: tumor cell lines B16-F10, HepG2, K562 and HL-60; assay: Alamar Blue cytotoxicity assay, summary over the tumor cell lines tested; conditions: 72 h, read-out: IC50 in at least one of the tumor cell lines tested
Protocol: as §3, §4

[12] = parameters: method as in PMID 22491683; conditions: previously studied; cited from earlier work
[13] = in vitro; conditions: mouse (B16-F10); human (HepG2, K562, HL-60)
Protocol: as §3, §4

COc1ccc2c(c1)C[C@@H]1NCCc3cc4c(c-2c31)OCO4 [(+)-Xylopine, (+)-xylopine]
IC50 [1]: 3.77 µg/mL | IC50 ([1]; value in brackets): 12.7 µM | IC50 [2]: 1.87 µg/mL | IC50 ([2]; value in brackets): 6.31 µM | IC50 [3]: 1.87 µg/mL | IC50 ([3]; value in brackets): 6.31 µM | selectivity index (SI) [3]: 2.2 | IC50 [4]: 3.12 µg/mL | IC50 ([4]; value in brackets): 10.5 µM | IC50 [5]: 4.08 µg/mL | IC50 ([5]; value in brackets): 13.8 µM | number of non-viable cells [6]: without increasing the number of non-viable cells | number of viable cells ([6]; p < 0.05): reduce the number of viable cells | number of apoptotic cells (AO/EB) [7]: increased number of apoptotic cells | cell morphology [8]: morphology consistent with apoptosis, including chromatin condensation and fragmentation of the nuclei | phosphatidylserine exposure [9]: significant increase in phosphatidylserine exposure | Cell Cycle Phases (%) S ([10]; 5 µg/mL, NC 16.11 ± 1.89): 10.80 ± 1.50 % | Cell Cycle Phases (%) G2/M ([10]; 5 µg/mL): 64.16 ± 2.56 % | Cell Cycle Phases (%) G1 ([10]; 5 µg/mL): 28.05 ± 3.15 % | Cell Cycle Phases (%) G2/M ([10]; 10 µg/mL): 39.96 ± 9.59 % | Cell Cycle Phases (%) G1 ([10]; 10 µg/mL): 20.43 ± 3.06 % | effect on cell cycle distribution ([10]; 5 and 10 μg/mL): total number of cells in the G2/M phase increased, indicating cell cycle arrest during this phase | internucleosomal DNA fragmentation (sub-G1) ([10]; 5 and 10 μg/mL, p < 0.05): increase in the internucleosomal DNA fragmentation | IC50 [11]: < 4 µg/mL

COc1cc2c(cc1OC)-c1c(OC)c(OC)cc3c1C(C2)NCC3 (single isomer, unassigned; (+)) [(+)-Norglaucine, (+)-norglaucine]
IC50 [1]: 8.48 µg/mL | IC50 ([1]; value in brackets): 24.8 µM | IC50 [2]: 3.78 µg/mL | IC50 ([2]; value in brackets): 11 µM | IC50 [3]: 6.84 µg/mL | IC50 ([3]; value in brackets): 20 µM | selectivity index (SI) [3]: 1.0 | IC50 [4]: 7.84 µg/mL | IC50 ([4]; value in brackets): 22.9 µM | IC50 [5]: 6.7 µg/mL | IC50 ([5]; value in brackets): 19.6 µM | pro-apoptotic effect [12]: no effect was found | IC50 [11]: < 4 µg/mL

COc1cc2c(cc1OC)-c1c(OC)c(O)cc3c1C(C2)NCC3 (single isomer, unassigned; (+)) [(+)-Norpredicentrine, (+)-norpredicentrine]
IC50 [1]: > 25 µg/mL | IC50 [2]: > 25 µg/mL | IC50 [3]: > 25 µg/mL | IC50 [4]: > 25 µg/mL | IC50 [5]: > 25 µg/mL | IC50 at 72 h [13]: > 25 µg/mL
